Measurements reported in publication PMC7175153, “Testing the Pharmacokinetic Interactions of 24 Colonic Flavonoid Metabolites with Human Serum Albumin and Cytochrome P450 Enzymes” (Biomolecules, 2020).
Read-outs that look alike come from different tables or passages of the source.

Assays:
bovine serum albumin = conditions: cited from earlier work
HSA Site II (naproxen) = biological target: T1, HSA Site II (naproxen) (Homo sapiens, UniProt P02768); test: Displacement of Site II marker naproxen from HSA by ultrafiltration; assay type: binding; conditions: naproxen 1 μM, HSA 1.5 μM, metabolite 20 μM
T1 construct: purchased Sigma-Aldrich
T1 sequence (P02768 25-609): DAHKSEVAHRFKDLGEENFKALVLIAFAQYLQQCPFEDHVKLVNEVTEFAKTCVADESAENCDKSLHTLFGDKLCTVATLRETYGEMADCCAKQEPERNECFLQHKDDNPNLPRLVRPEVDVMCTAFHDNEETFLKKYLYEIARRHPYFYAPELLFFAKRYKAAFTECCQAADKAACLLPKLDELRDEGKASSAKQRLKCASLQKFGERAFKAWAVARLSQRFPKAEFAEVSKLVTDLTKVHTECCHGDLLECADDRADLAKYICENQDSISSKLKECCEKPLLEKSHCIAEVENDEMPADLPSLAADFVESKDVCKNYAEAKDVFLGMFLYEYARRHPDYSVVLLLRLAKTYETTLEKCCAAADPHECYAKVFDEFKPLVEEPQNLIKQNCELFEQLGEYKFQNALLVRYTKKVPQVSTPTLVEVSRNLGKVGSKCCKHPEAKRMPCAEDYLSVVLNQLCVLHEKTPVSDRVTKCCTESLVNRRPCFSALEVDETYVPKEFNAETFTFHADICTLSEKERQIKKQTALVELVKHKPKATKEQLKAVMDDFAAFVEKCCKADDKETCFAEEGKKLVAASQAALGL
Source text: (§1) Then the concentrations of site markers in the filtrates were quantified by HPLC (see in 2.5).

[1] = set-up: method as in PMID 25168218; conditions: rat plasma, after Decalepis arayalpathra tuber extract; cited from earlier work
[2] = biological target: T2, human serum albumin (HSA) (Homo sapiens, UniProt P02768); test: HSA-ligand interaction by fluorescence spectroscopy (quenching, Stern-Volmer and Hyperquad fitting); assay type: binding; conditions: for Kd: decimal log ±SEM of K in L/mol, Hyperquad non-linear fitting, PBS pH 7.4; for Effect on HSA fluorescence signal at 340 nm / LogKSV (Stern-Volmer quenching constant): HSA 2 μM; for Effect on HSA fluorescence signal at 340 nm: metabolite 0-8 μM, λex 295 nm; for LogKSV (Stern-Volmer quenching constant): decimal log ±SEM of KSV in L/mol, PBS pH 7.4, λex 295 nm, λem 340 nm
T2 construct: purchased Sigma-Aldrich
T2 sequence (P02768 25-609): as above
Procedure: Albumin-ligand interactions were investigated employing a Hitachi F-4500 fluorimeter (Tokyo, Japan), measurements were performed in phosphate-buffered saline (PBS, pH 7.4), in the presence of air at room temperature. Absorption spectra of the flavonoid metabolites were also recorded in PBS, applying a HALO DB-20 UV-Vis spectrophotometer (Dynamica, London, UK). Because the inner filter effect can decrease the fluorescence emission signal of albumin, fluorescence spectra were corrected using the following equation [29, 30]:Icor = Iobs × e^(Aex^+ Aem^)/2(1) where Icor means the corrected and Iobs denotes the observed emission intensities at the wavelengths used, while Aex and Aem are the absorbance values of flavonoid metabolites at the excitation and emission wavelengths applied, respectively.
HSA-ligand interactions were evaluated using fluorescence quenching studies or the intrinsic fluoresce of the metabolite (if it strongly interfered with the emission signal of albumin). In quenching studies, the emission spectrum of HSA (2 μM) was recorded in the presence of increasing concentrations of microbial metabolites (0, 2, 3, 4, 5, 6, and 8 μM), using a 295 nm excitation wavelength. Data were evaluated based on linear and non-linear fitting, employing the Stern-Volmer equation (Equation (2)) and the Hyperquad2006 program package (Protonic Software; Leeds, UK), respectively. The Stern-Volmer equation was described as I0/I = 1 + KSV × [Q](2) where I0 and I denote the fluorescence emission intensities (λex = 295 nm, λem = 340 nm) of HSA in the absence and presence of colonic metabolites, respectively. Furthermore, KSV (unit: L/mol) and [Q] (unit: mol/L) are the Stern-Volmer quenching constant and the concentration of the quencher, respectively.
The fluorescence emission spectrum of 2H4MBA (2 μM) was recorded with HSA (0, 0.5, 1, 2, 3, 4 and 5 μM), using 295 nm excitation wavelength (the excitation maximum of 2H4MBA). The binding constants (K; unit: L/mol) of albumin-ligand complexes were determined by non-linear fitting using the Hyperquad2006 program, as has been reported. During this evaluation, absorbance values and fluorescence signals of both HSA and 2H4MBA were taken into account.

CYP2C19 [3] = biological target: T3, CYP2C19 (Homo sapiens, UniProt P33261); test: CYP2C19-catalyzed S-mephenytoin hydroxylation (CypExpress 2C19 kit); assay type: in vitro ADME; conditions: CypExpress 2C19 kit (recombinant CYP2C19), probe S-mephenytoin, metabolite 20 μM, S-mephenytoin 5 μM
T3 construct: purchased Sigma-Aldrich
T3 sequence (P33261 whole entry): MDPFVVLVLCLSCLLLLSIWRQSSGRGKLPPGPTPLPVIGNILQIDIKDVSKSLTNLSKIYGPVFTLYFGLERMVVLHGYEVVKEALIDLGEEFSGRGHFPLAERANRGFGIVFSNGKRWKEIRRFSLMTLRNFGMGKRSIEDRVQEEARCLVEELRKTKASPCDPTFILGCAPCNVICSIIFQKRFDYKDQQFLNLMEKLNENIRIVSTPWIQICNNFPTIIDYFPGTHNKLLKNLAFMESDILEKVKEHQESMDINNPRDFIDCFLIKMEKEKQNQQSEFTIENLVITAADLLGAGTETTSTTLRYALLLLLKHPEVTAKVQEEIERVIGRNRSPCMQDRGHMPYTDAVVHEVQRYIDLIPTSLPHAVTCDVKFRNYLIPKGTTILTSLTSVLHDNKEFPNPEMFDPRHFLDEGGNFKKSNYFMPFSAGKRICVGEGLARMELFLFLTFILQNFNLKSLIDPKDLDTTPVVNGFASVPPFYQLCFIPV
Source text: Effects of microbial metabolites on CYP2C19 enzyme were examined based on their impact on CYP2C19-catalyzed 4-hydroxymephenytoin formation, employing the previously reported method without modifications.
(§2) S-mephenytoin and 4-hydroxymephenytoin (CYP2C19 assay) as well as testosterone and 6β-hydroxytestosterone (CYP3A4 assay) were quantified by HPLC-UV employing the previously described methods without modifications.

HSA = conditions: cited from earlier work
CYP3A4 [4] = conditions: cited from earlier work
CYP2C9 [5] = conditions: cited from earlier work
CYP2C19 [6] = tested on: CYP2C19; set-up: method as in PMID 24254844; conditions: cited from earlier work
[7] = cited from earlier work
HSA Site I (warfarin) = biological target: T4, HSA Site I (warfarin) (Homo sapiens, UniProt P02768); test: Displacement of Site I marker warfarin from HSA by ultrafiltration; assay type: binding; conditions: warfarin 1 μM, HSA 5 μM, metabolite 20 μM
T4 construct: purchased Sigma-Aldrich
T4 sequence (P02768 25-609): as the sequence (P02768 25-609) above
Source text: as §1

CYP3A4 [8] = biological target: T5, CYP3A4 (Homo sapiens, UniProt P08684); test: CYP3A4-catalyzed testosterone hydroxylation (CypExpress 3A4 kit); assay type: in vitro ADME; conditions: CypExpress 3A4 kit (recombinant CYP3A4), probe testosterone, metabolite 20 μM, testosterone 5 μM, read-out: Inhibition of CYP3A4 (decrease in metabolite formation)
T5 construct: purchased Sigma-Aldrich
T5 sequence (P08684 whole entry): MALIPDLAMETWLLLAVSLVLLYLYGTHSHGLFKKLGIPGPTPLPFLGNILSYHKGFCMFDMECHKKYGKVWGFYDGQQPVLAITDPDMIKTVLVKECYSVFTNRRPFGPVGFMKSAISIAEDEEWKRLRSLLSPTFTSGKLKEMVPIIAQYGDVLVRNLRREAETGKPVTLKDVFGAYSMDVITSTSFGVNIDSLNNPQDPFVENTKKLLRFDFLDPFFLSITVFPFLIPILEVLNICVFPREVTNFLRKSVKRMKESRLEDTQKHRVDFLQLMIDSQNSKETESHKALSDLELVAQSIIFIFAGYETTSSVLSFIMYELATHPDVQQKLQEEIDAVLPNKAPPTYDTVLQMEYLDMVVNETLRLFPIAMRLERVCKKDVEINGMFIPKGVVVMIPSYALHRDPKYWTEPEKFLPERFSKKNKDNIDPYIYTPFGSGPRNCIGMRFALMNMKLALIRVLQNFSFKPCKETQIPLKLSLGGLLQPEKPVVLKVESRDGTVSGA
Procedure: Inhibitory action of flavonoid metabolites on CYP3A4 enzyme was tested based on their effects on CYP3A4-catalyzed testosterone hydroxylation, using the previously described method without modifications.
as §2

CYP2C9 [9] = biological target: CYP2C9 (Homo sapiens, UniProt P11712); test: CYP2C9-catalyzed diclofenac hydroxylation (CypExpress 2C9 kit)
CYP2C9 (Homo sapiens, UniProt P11712), sequence (P11712 whole entry): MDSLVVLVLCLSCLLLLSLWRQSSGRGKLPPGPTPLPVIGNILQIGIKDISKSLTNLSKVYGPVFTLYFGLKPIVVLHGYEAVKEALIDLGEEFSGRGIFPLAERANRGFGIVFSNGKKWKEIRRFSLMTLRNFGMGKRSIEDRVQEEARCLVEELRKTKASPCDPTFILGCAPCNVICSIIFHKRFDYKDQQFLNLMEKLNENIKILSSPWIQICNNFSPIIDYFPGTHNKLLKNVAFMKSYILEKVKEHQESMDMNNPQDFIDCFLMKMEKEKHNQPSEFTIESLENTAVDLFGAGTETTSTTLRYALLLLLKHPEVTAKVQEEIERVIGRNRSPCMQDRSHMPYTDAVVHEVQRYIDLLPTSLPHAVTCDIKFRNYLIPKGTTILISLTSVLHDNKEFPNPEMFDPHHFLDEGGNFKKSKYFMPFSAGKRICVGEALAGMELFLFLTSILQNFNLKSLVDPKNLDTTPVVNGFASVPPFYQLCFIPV
Procedure: The inhibitory effects of colonic flavonoid metabolites were examined in vitro, applying CypExpress^TM Cytochrome P450 human kits.
Inhibition of CYP2C9 enzyme was examined based on CYP2C9-catalyzed 4′-hydroxydiclofenac formation in the presence of microbial metabolites, using the previously reported method with some modifications. […] The incubations were started with the addition of the enzyme. After 120 min incubation at 700 rpm and 30 °C in a thermomixer (Eppendorf, Hamburg, Germany), the reaction was stopped with the addition of 100 μL of ice-cold methanol. After centrifugation (10 min, 14,000 g, room temperature), the concentrations of diclofenac and 4′-hydroxydiclofenac were quantified with HPLC (see in 2.5).
The metabolite formation (% of control) was depicted vs. the concentrations of inhibitors in a decimal logarithmic scale, then IC50 values were determined employing the GraphPad Prism 8 software (San Diego, CA, USA).
Diclofenac and 4′-hydroxydiclofenac (CYP2C9 assay) were quantified by HPLC-UV as it was reported previously. […] The separation was carried out using a guard column (Phenomenex Security Guard C8, 4.0 × 3.0 mm) linked to an analytical column (Agilent Eclipse C8, 150 × 4.6 mm, 5 μm) at room temperature. […] Diclofenac and 4′-hydroxydiclofenac were detected at 275 nm.

[10] = read-out: LogK (binding constant of albumin-ligand complex) (converted)

Compound: COc1cc(CC(=O)O)ccc1O [3M4HPAA, 3-methoxy-4-hydroxyphenylacetic acid]
- logK toward bovine serum albumin (bovine serum albumin): 3.8

Compound: COc1ccc(C(=O)O)c(O)c1 [2H4MBA, 2-hydroxy-4-methoxybenzoic acid]
- Concentration of naproxen in the filtrate (HSA Site II (naproxen)): statistically significant (p < 0.05) but weak elevation
- Cmax [1]: 7.7 µM
- Kd [2, 10]: 7.24 µM
- inhibition at 20 μM (CYP2C19 [3]): < 30%
- logK of 2H4MBA-HSA complex (HSA; quenching study): 3.2

Compound: O=C(O)c1ccc(O)c(O)c1 [34DHBA, 3,4-dihydroxybenzoic acid]
- inhibition at 20 μM (CYP2C19 [3]): < 30%
- logK of complex with HSA (HSA): 3.1

Compound: O=C(O)CNC(=O)c1ccccc1 [HIPA, hippuric acid]
- Inhibition of CYP3A4-catalyzed testosterone hydroxylation (CYP3A4 [4]; 1-100 μM range): did not show relevant inhibition
- Inhibition of CYP3A4-catalyzed testosterone hydroxylation (CYP3A4 [4]): considerable inhibition only above 50 μM concentrations
- inhibition at 20 μM (CYP2C19 [3]): < 30%
- Inhibition of CYP2C9 (CYP2C9 [5]): inhibited only at very high concentrations (e.g., 100 μM)
- logK of complex with HSA (HSA): 3.8

Compound: O=C(O)c1ccc(O)cc1 [4HBA, 4-hydroxybenzoic acid]
- Effect on CYP3A4 enzyme (CYP3A4 [4]): did not influence
- Inhibition of CYP2C9 (CYP2C9 [5]): did not inhibit
- Inhibition of CYP2C19 (CYP2C19 [6]): did not inhibit
- logK of complex with HSA (HSA): no interaction

Compound: Oc1cccc(O)c1O [PYR, pyrogallol]
- Peak plasma concentration ([7]; healthy humans, black tea extract 2650 mg, plasma not treated with sulfatase): approximately 7 μM
- Effect on HSA fluorescence signal at 340 nm [2]: significant decrease
- Kd ([2]; LogK (binding constant of albumin-ligand complex)): 20.9 µM
- LogKSV (Stern-Volmer quenching constant) [2]: 4.64 ± 0.03
- Concentration of warfarin in the filtrate (HSA Site I (warfarin)): significantly increased
- logK of PYR-HSA complex (HSA): 4.5

Compound: COc1cc(C(=O)O)ccc1O [4-hydroxy-3-methoxy-benzoic acid]
- Cmax ([7]; healthy human volunteers, orally administered): 5.7 µM

Compound: O=C(O)/C=C/c1ccc(O)cc1 [4-coumaric acid]
- Effect on CYP3A4 enzyme (CYP3A4 [4]): did not influence

Compound: Oc1cc(O)cc(O)c1 [PHLO, phloroglucinol]
- Peak plasma concentration ([7]; healthy human volunteers, oral 160 mg PHLO): approximately 5 μM
- inhibition at 20 μM (CYP3A4 [8]): ~40%

Compound: O=c1c(-c2ccc(O)cc2)coc2cc(O)ccc12 [daidzein]
- Inhibition of CYP2C9-catalyzed hydroxylation of diclofenac (CYP2C9 [5]): inhibits

Compound: O=C(O)/C=C/c1cccc(O)c1 [3CA, 3-coumaric acid]
- Concentration in the circulation [7]: low nanomolar concentrations
- Effect on HSA fluorescence signal at 340 nm [2]: significant decrease
- Kd [2, 10]: 72.4 µM
- LogKSV (Stern-Volmer quenching constant) [2]: 4.13 ± 0.02
- logK of 3CA-bovine serum albumin complex (bovine serum albumin): 4.1

Compound: CC(C(=O)c1ccc(O)cc1O)c1ccc(O)cc1 (stereo not shown) [DESMA, 1-(2,4-dihydroxyphenyl)-2-(4-hydroxyphenyl)-1-propanone]
- IC50 (CYP2C9 [9]): 6.6 µM
- α (IC50 of the inhibitor divided by the IC50 of the positive control) (CYP2C9 [9]; human, 120 min, pH 7.5): 5.00
- Plasma concentrations ([7]; after dietary intake or high consumption of soy products, low nanomolar upward): ≤ 0.5 µM
- Peak plasma concentration ([7]; after ingestion of 60 g baked soybean powder): 300−500 nM
- Effect on HSA fluorescence signal at 340 nm [2]: significant decrease
- Kd [2, 10]: 8.32 µM
- LogKSV (Stern-Volmer quenching constant) [2]: 4.99 ± 0.01
- inhibition at 20 μM (CYP2C19 [3]): < 30%
- inhibition at 20 μM (CYP3A4 [8]): < 30%
- Concentration of warfarin in the filtrate (HSA Site I (warfarin)): significantly increased

Compound: O=C(O)c1ccc(O)cc1O [24DHBA, 2,4-dihydroxybenzoic acid]
- logK of complex with HSA (HSA): 3.2

Compound: O=C(O)CCc1ccc(O)cc1 [34HPPA, 3-(4-hydroxyphenyl)propionic acid]
- Effect on CYP3A4 enzyme (CYP3A4 [4]): did not influence
- Inhibition of CYP2C9 (CYP2C9 [5]): did not inhibit
- Inhibition of CYP2C19 (CYP2C19 [6]): did not inhibit

Compound: Oc1cccc(O)c1 [RES, resorcinol]
- inhibition at 20 μM (CYP3A4 [8]): ~65%

Compound: CC(=O)c1ccc(O)cc1O [24DHAP, 2,4-dihydroxyacetophenone]
- Effect on HSA fluorescence signal at 340 nm [2]: significant decrease
- Kd [2, 10]: 27.5 µM
- LogKSV (Stern-Volmer quenching constant) [2]: 4.39 ± 0.06
- inhibition at 20 μM (CYP3A4 [8]): < 30%
